Laboratory results: patent publication US20250296932A1, “PHARMACEUTICAL COMPOSITIONS COMPRISING HIV INTEGRASE INHIBITORS” (priority 2024, published 2025)

Legend:
[1] = test system: HIV-1 (HXB2) site directed mutant E138K/Q148K; assay: HIV-1 replication in MT-4 cells, INSTI resistant site-directed mutant E138K/Q148K; type: cell-based; details: 5 days, Cell Titer Glo, at least 3 independent experiments in quadruplicate
Protocol: (§1) The compound of Formula I, along with control compounds bictegravir and raltegravir, were tested in a high-throughput 384-well assay format for ability to inhibit the replication of HIV-1 (HXB2) in MT-4 cells. Compounds were serially diluted (1:3) in 10 ul DMSO on 384-well plates and then diluted 187-fold into complete RPMI media using the uFLow and Biomek FX. 0.4 uL of compound was added in quadruplicate to 384-well assay plates. Each plate contained 8 test compounds, plus DMSO negative and 5 uM AZT positive controls. 1 mL aliquots of 2M MT-4 cells were pre-infected for 1 hr, @ 37° C. with 25 uL (MT-4) of either RPMI (mock-infected) or a fresh 1:250 dilution of an HIV-1 (HXB2 WT or site directed mutants containing either single INSTI Mutations E92Q, Y143R, Q148R, N155H, or R263K or double mutations E92Q/N155H, E138K/Q148K, or G140S/Q148R) concentrated ABI stock. Infected and uninfected cells were diluted in RPMI and 35 uL containing 2000 MT-4 cells was added to each well of assay plates, using the uFLow and subsequently incubated for 5 days at 37° C. in an incubator set at 5% CO2 and 90% humidity. After 5 days, 22 uL Cell Titer Glo (Promega, Madison, WI, Cat #G7573) was added to the assay plates with a Biotek uFlow Workstation. Plates were subsequently placed on a Perkin Elmer Envision Plate Reader for 5 minutes before the luminescence signal was read. EC50 values were defined as the compound concentration that causes a 50 decrease in luminescence signal, a measure of HIV-1 replication, and were calculated in Accord (online tool) using a one-site dose-response model to generate sigmoidal curve fits. Fold shifts for mutant viruses were obtained by calculating EC50 values relative to the HXB2 WT control.
(§2) The mean fold change values (relative to WT) are from at least 3 independent experiments assayed in quadruplicate.

[2] = test system: HIV-1 (HXB2) site directed mutant N155H; assay: HIV-1 replication in MT-4 cells, INSTI resistant site-directed mutant N155H; type: cell-based; details: 5 days, Cell Titer Glo, at least 3 independent experiments in quadruplicate
Protocol: as §1, §2

[3] = test system: HIV-1 (HXB2) site directed mutant R263K; assay: HIV-1 replication in MT-4 cells, INSTI resistant site-directed mutant R263K; type: cell-based; details: 5 days, Cell Titer Glo, at least 3 independent experiments in quadruplicate
Protocol: as §1, §2

[4] = test system: HIV-1 (HXB2) site directed mutant Y143R; assay: HIV-1 replication in MT-4 cells, INSTI resistant site-directed mutant Y143R; type: cell-based; details: 5 days, Cell Titer Glo, at least 3 independent experiments in quadruplicate
Protocol: as §1, §2

[5] = test system: HIV-1 (HXB2) site directed mutant E92Q/N155H; assay: HIV-1 replication in MT-4 cells, INSTI resistant site-directed mutant E92Q/N155H; type: cell-based; details: 5 days, Cell Titer Glo, at least 3 independent experiments in quadruplicate
Protocol: as §1, §2

[6] = test system: HIV-1 (HXB2) site directed mutant Q148R; assay: HIV-1 replication in MT-4 cells, INSTI resistant site-directed mutant Q148R; type: cell-based; details: 5 days, Cell Titer Glo, at least 3 independent experiments in quadruplicate
Protocol: as §1, §2

[7] = test system: HIV-1 (HXB2) site directed mutant G140S/Q148R; assay: HIV-1 replication in MT-4 cells, INSTI resistant site-directed mutant G140S/Q148R; type: cell-based; details: 5 days, Cell Titer Glo, at least 3 independent experiments in quadruplicate
Protocol: as §1, §2

[8] = test system: HIV-1 (HXB2) site directed mutant E92Q; assay: HIV-1 replication in MT-4 cells, INSTI resistant site-directed mutant E92Q; type: cell-based; details: 5 days, Cell Titer Glo, at least 3 independent experiments in quadruplicate
Protocol: as §1, §2

[9] = test system: NNRTI-resistant (NNRTI-r) HIV-1 mutants (HXB2-based viruses encoding RT mutations K103N, Y181C, Y188L, L100I+K103N, G190A); assay: Antiviral potency against panel of HIV-1 mutants: NNRTI-resistant; type: cell-based; details: relative to WT; at least three experiments run in triplicate; control: NNRTI (EFV)
Protocol: (§3) The human T-lymphoblastoid MT-2 and SupTI cell lines were obtained from the NIH AIDS Reagent Program (Germantown, MD) and maintained in RPMI-1640 medium supplemented with 10% heat-inactivated fetal bovine serum, 100 units/mL penicillin, and 10 μg/mL streptomycin (complete RPMI media). Cells were passaged twice per week and kept at densities less than 800,000 cells per mL. Adherent HEK293T cells were obtained from the Gladstone Institute for Virology and Immunology (San Francisco, CA) and maintained at densities below 80% confluency in Dulbecco's Modified Eagle Medium (DMEM) (Gibco) supplemented with 10% heat-inactivated FBS, 100 units/mL penicillin, and 10 μg/mL streptomycin (complete DMEM media). Unless otherwise noted, HIV-1 recombinant strains carrying mutations were prepared by transfecting infectious proviral pLAI-based or pHXB2-based cDNA clones into MT-2 cells and harvesting the cell supernatants. The NNRTI-resistant HXB2-based viruses encoding reverse transcriptase (RT) mutations (K103N, Y181C, Y188L, L100I+K103N, and G190A) were constructed by site-directed mutagenesis. The NRTI-resistant LAI-based viruses encoding RT mutations K65R, M184V, and M41L+T215Y were constructed by site-directed mutagenesis. […].
(§4) The EC50 fold change range is the mean±standard deviation from at least three experiments run in triplicate. […]

[10] = test system: PI-resistant (PI-r) HIV-1 mutants (HXB2-based viruses encoding protease mutations 150V, 184V+L90M, G48V+V82A+L90M, G48V+V82S); assay: Antiviral potency against panel of HIV-1 mutants: PI-resistant; type: cell-based; details: relative to WT; at least three experiments run in triplicate; controls: PIs (DRV, ATV)
Protocol: as §3, §4

[11] = test system: CAI-resistant (CAI-r) HIV-1 reporter viruses encoding capsid mutations (L56I, N57H, M66I, K70N, Q67H+N74D, Q67H+T107N); assay: Antiviral potency against panel of HIV-1 mutants: CAI-resistant single cycle reporter viruses; type: cell-based; details: relative to WT; at least three experiments run in triplicate; control: CAI (LEN)
Protocol: as §3, §4

[12] = test system: NRTI-resistant (NRTI-r) HIV-1 mutants (LAI-based viruses encoding RT mutations K65R, M184V, M41L+T215Y); assay: Antiviral potency against panel of HIV-1 mutants: NRTI-resistant; type: cell-based; details: relative to WT; at least three experiments run in triplicate; controls: NRTIs (TAF, FTC)
Protocol: as §3, §4

[13] = Hygroscopicity by dynamic vapor sorption (DVS) of crystalline forms, salts and co-crystals; type: physicochemical
Protocol: Hygroscopicity was studied using dynamic vapor sorption (DVS, TA Q5000 SA, TA Instruments, New Castle, DE or DVS, DVS Intrinsic, Surface Measurement Systems, London, UK). […] The water sorption and desorption were studied as a function of relative humidity (RH) at 25° C. […] Data analysis was performed using Universal Analysis 2000 Version 4.7A (TA Instruments, New Castle, DE) for TA DVS runs and Microsoft Excel for SMS DVS runs.

Row | SMILES | Mean EC50 Fold Change (relative to WT), E138K/Q148K [1] | Mean EC50 Fold Change (relative to WT), N155H [2] | Mean EC50 Fold Change (relative to WT), R263K [3] | Mean EC50 Fold Change (relative to WT), Y143R [4] | Mean EC50 Fold Change (relative to WT), E92Q/N155H [5] | Mean EC50 Fold Change (relative to WT), Q148R [6] | Mean EC50 Fold Change (relative to WT), G140S/Q148R [7] | Mean EC50 Fold Change (relative to WT), E92Q [8] | EC50 Fold Change, Range, NNRTI-r [9] | EC50 Fold Change, Range, PI-r [10] | EC50 Fold Change, Range, CAI-r [11] | EC50 Fold Change, Range, NRTI-r [12] | form of the material post DVS experiment ([13]; after DVS sorption/desorption at 25° C.) | water absorbed (DVS) ([13]; up to 95% RH at 25° C.)
1 | O=C(NCc1c(F)cc(F)cc1F)c1cn2c(c(O)c1=O)C(=O)N1[C@H]3CC[C@H](C3)O[C@@H]1C2 [Bictegravir] | 4.4 fold | 1.3 fold | 1.9 fold | 1.8 fold | 1.2 fold | 0.7 fold | 2.1 fold | 1.6 fold | – | – | – | – | – | –
2 | C[C@@H]1C=C[C@H](C)N2CN1n1cc(C(=O)NCc3c(F)cc(F)cc3F)c(=O)c(O)c1C2=O [Compound of Formula I, (1S,2R,5S)-8-hydroxy-2,5-dimethyl-7,9-dioxo-N-(2,4,6-trifluorobenzyl)-2,5,7,9-tetrahydro-1,6-methanopyrido[1,2-b][1,2,5]triazonine-10-carboxamide] | 9.5 fold | 1.9 fold | 2.0 fold | 2.5 fold | 1.8 fold | 1.0 fold | 5.5 fold | 2.7 fold | 0.7-2.4 fold | 0.4-1.3 fold | 0.8-1.2 fold | 0.4-0.8 fold | – | –
3 | C[C@@H]1C=C[C@H](C)N2CN1n1cc(C(=O)NCc3c(F)cc(F)cc3F)c(=O)c(O)c1C2=O [Compound of Formula I, Form I, (1S,2R,5S)-8-hydroxy-2,5-dimethyl-7,9-dioxo-N-(2,4,6-trifluorobenzyl)-2,5,7,9-tetrahydro-1,6-methanopyrido[1,2-b][1,2,5]triazonine-10-carboxamide] | – | – | – | – | – | – | – | – | – | – | – | – | not have changed form | about 0.15%
4 | Cc1nnc(C(=O)NC(C)(C)c2nc(C(=O)NCc3ccc(F)cc3)c(O)c(=O)n2C)o1 [Raltegravir] | 6.5 fold | 6.1 fold | 1.1 fold | 18 fold | 58 fold | 16 fold | 108 fold | 4.8 fold | – | – | – | – | – | –
